# Tests used:
# DIO C57BL/6 mice = assay: Oral glucose tolerance test in diet-induced obese mice, acute or after 2-week dosing; format: in vivo, mouse; conditions: 2 g/kg glucose
# Method: For measurement of glucose only, overnight-fasted C57BL/6 mice in a normal light cycle were orally dosed with vehicle or compound, followed by an oral bolus of 3 g/kg glucose at 15 minutes post compound. At 0, 20, 40, 60, and 120 minutes post glucose dose, blood glucose was assessed via glucometers. Resulting raw data was used to generate AUCs. For measurement of hormones and glucose, overnight-fasted C57BL/6 mice acclimated for two weeks to a reverse light cycle were orally dosed with vehicle or compound, followed by an oral bolus of 3 g/kg glucose at 15 minutes post compound. At 0, 2, 5, 10, 20, 40, and 60 minutes post glucose dose, blood glucose was assessed via glucometers, followed immediately by collection of plasma for active GLP-1 (Mesoscale Discovery), insulin (Mesoscale Discovery), and total PYY. […] At 0, 15, 30, 60, and 120 minutes post glucose dose, blood glucose was assessed via glucometers. […]
# While compound 18 led to significant glucose lowering in an OGTT studies when dosed acutely, it remained unclear if the mechanism of TGR5-stimulated GLP-1 secretion desensitizes over time. […] For the chronic study, DIO mice were orally dosed with vehicle or 60 mg/kg compound 18 once a day for two weeks; body weights and food intake were measured during the treatment period. […]
# C57BL/6 mice [1] = assay: Acute in vivo incretin secretion assay (plasma GLP-1 and PYY AUC); conditions: fasted mice, 3-hour time course
# Text: Plasma was separated by centrifugation, aliquoted, and analyzed for GLP-1 (X-36) amide (Mesoscale Discovery) and total PYY (Millipore). Resulting raw data was used to generate area under the curve analyses (AUCs).
# C57BL/6 mice [2] = assay: Oral glucose tolerance test with hormone measurement; format: in vivo, mouse; conditions: 30 mg/kg oral, glucose 3 g/kg
# Method: For measurement of glucose only, overnight-fasted C57BL/6 mice in a normal light cycle were orally dosed with vehicle or compound, followed by an oral bolus of 3 g/kg glucose at 15 minutes post compound. At 0, 20, 40, 60, and 120 minutes post glucose dose, blood glucose was assessed via glucometers. Resulting raw data was used to generate AUCs. For measurement of hormones and glucose, overnight-fasted C57BL/6 mice acclimated for two weeks to a reverse light cycle were orally dosed with vehicle or compound, followed by an oral bolus of 3 g/kg glucose at 15 minutes post compound. At 0, 2, 5, 10, 20, 40, and 60 minutes post glucose dose, blood glucose was assessed via glucometers, followed immediately by collection of plasma for active GLP-1 (Mesoscale Discovery), insulin (Mesoscale Discovery), and total PYY. Glucose tolerance tests in diet-induced obese (DIO) C57BL/6 mice were performed in overnight-fasted animals dosed either acutely or after 2-week administration with vehicle or compound 18 at 60 mg/kg, followed 30 minutes post compound by an oral bolus of 2 g/kg glucose. At 0, 15, 30, 60, and 120 minutes post glucose dose, blood glucose was assessed via glucometers. Resulting raw data was used to generate AUCs.
# To evaluate glucose, insulin, GLP-1, and PYY levels throughout the OGTT, each time-point consisted of a separate group of mice that were used to record glucose by use of a glucometer followed by terminal bleeds for measurement of active GLP-1, total PYY, and insulin. AUCs were then calculated for the entire hour of the OGTT. […] Changes in insulin AUCs were not increased with treatment of either sitagliptin or compound 18, likely due to the lower glucose levels reducing the drive for glucose-stimulated insulin secretion (Fig 5D).
# Fig 5 Compound 18 increases GLP-1 and PYY and lowers the glucose and insulin excursions as compared to sitagliptin in an OGTT in C57BL/6 mice. […] Plasma was analyzed for active GLP-1 (A), total PYY (B), and insulin (D), while blood glucose was measured by glucometers (C).
# [3] = CEREP mini panel (56 assays: enzymes, receptors, ion channels); conditions: read-out: IC50s for 56 assays in a CEREP mini panel
smiles,measurement,setting,value
CC(=O)N1CCC(C(C)N(C(=O)COc2cccc3sc4nc(C)cn4c23)c2ccc(F)cc2)CC1 (stereo not drawn) [compound 18],reduction in the glucose excursion (OGTT),"DIO C57BL/6 mice; acute, single 60 mg/kg oral dose",33 ± 5%
same,reduction in the glucose excursion (OGTT),"DIO C57BL/6 mice; chronic, 60 mg/kg oral once a day for two weeks",27 ± 6%
same,GLP-1 AUC increase over vehicle,C57BL/6 mice [1]; 3 mg/kg oral,1.2 fold over vehicle
same,PYY AUC increase over vehicle,C57BL/6 mice [1]; 3 mg/kg oral,1.1 fold over vehicle
same,GLP-1 AUC increase over vehicle,C57BL/6 mice [1]; 10 mg/kg oral,2.0 fold over vehicle
same,PYY AUC increase over vehicle,C57BL/6 mice [1]; 10 mg/kg oral,1.5 fold over vehicle
same,GLP-1 AUC increase over vehicle,C57BL/6 mice [1]; 30 mg/kg oral,5.7 fold over vehicle
same,PYY AUC increase over vehicle,C57BL/6 mice [1]; 30 mg/kg oral,3.1 fold over vehicle
same,GLP-1 AUC increase over vehicle,C57BL/6 mice [1]; 100 mg/kg oral,12.1 fold over vehicle
same,PYY AUC increase over vehicle,C57BL/6 mice [1]; 100 mg/kg oral,4.9 fold over vehicle
same,AUC of active GLP-1 during OGTT,C57BL/6 mice [2]; 1 hour,superior AUC for active GLP-1 above both vehicle and sitagliptin
same,AUC of total PYY during OGTT,C57BL/6 mice [2]; 1 hour,higher increase in the AUC of total PYY above both vehicle and sitagliptin
same,insulin AUC during OGTT,C57BL/6 mice [2]; 1 hour,not increased
same,glucose excursion during OGTT,C57BL/6 mice [2]; versus sitagliptin 10 mg/kg,levels indistinguishable from those of sitagliptin-treated animals
same,IC50,[3],> 10 µM

# From publication PMC4551797 (PLoS ONE, 2015)
